# Assay results published in patent US10174293B1, “Recombinant PB1 bacteriophages and uses thereof” (Charles Stark Draper Laboratory, Inc., priority 2018, dated 2019).
# Test system: drug sensitive strain
# Test: Antibiotic susceptibility profiling with recombinant PB1 phages, drug sensitive strain
# Format: cell-based, Pseudomonas aeruginosa
# From the text: In some embodiments of the method, the differences in the reporter gene expression of the recombinant PB1 bacteriophage observed in the antibiotic treated sub-sample and the untreated control sub-sample is defined as μ.
substance,measurement,setting,value
gentamicin,luciferase activity of antibiotic treated sample,versus 'no drug' sample (FIG. 4B),decline in luciferase activity
same,μ value over time,"μ = difference in reporter expression, treated vs untreated (FIG. 4B)",steady increase in μ value over time
